{"source": "the supplement of paper PMC10307832", "assay_in_all_cases": "relative viability (nuclei count vs DMSO), 5 days (fraction); higher = more cells survive", "key": {"[1]": {"test_system": "201T", "procedure,_shortened": "(§1)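 A single step with final 0.05% Triton X-100, 1% formaldehyde and 1 ug/ml Hoechst fixed the cells and stained nuclei 5 days after treatment. Lung cancer cell lines in 1536-well plates had been treated by pin tool the day after seeding with one drug alone or a fixed anchor-drug dose plus five library-drug doses (not always all listed) in √10 steps, and nuclei were counted on 4× images. Relative viability is the ratio of nuclei in treated wells to nuclei in vehicle wells, taken as the median of duplicate plates.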"}, "[2]": {"test_system": "ABC-1", "procedure,_shortened": "as §1"}, "[3]": {"test_system": "CAL-12T", "procedure,_shortened": "as §1"}, "[4]": {"test_system": "EMC-BAC-2", "procedure,_shortened": "as §1"}, "[5]": {"test_system": "H3255", "procedure,_shortened": "as §1"}, "[6]": {"test_system": "HOP-62", "procedure,_shortened": "as §1"}, "[7]": {"test_system": "LK-2", "procedure,_shortened": "as §1"}, "[8]": {"test_system": "LXF-289", "procedure,_shortened": "as §1"}, "[9]": {"test_system": "NCI-H1651", "procedure,_shortened": "as §1"}, "[10]": {"test_system": "NCI-H1734", "procedure,_shortened": "as §1"}, "[11]": {"test_system": "NCI-H1755", "procedure,_shortened": "as §1"}, "[12]": {"test_system": "NCI-H2009", "procedure,_shortened": "as §1"}, "[13]": {"test_system": "NCI-H2087", "procedure,_shortened": "as §1"}, "[14]": {"test_system": "NCI-H2126", "procedure,_shortened": "as §1"}, "[15]": {"test_system": "NCI-H3122", "procedure,_shortened": "as §1"}, "[16]": {"test_system": "NCI-H322M", "procedure,_shortened": "as §1"}, "[17]": {"test_system": "NCI-H441", "procedure,_shortened": "as §1"}, "[18]": {"test_system": "NCI-H596", "procedure,_shortened": "as §1"}, "[19]": {"test_system": "NCI-H647", "procedure,_shortened": "as §1"}, "[20]": {"test_system": "PC-14", "procedure,_shortened": "as §1"}, "[21]": {"test_system": "SK-MES-1", "procedure,_shortened": "as §1"}}, "data": [{"smiles": "Cc1cnc(-c2cnc(NCCNc3ccc(C#N)cn3)nc2-c2ccc(Cl)cc2Cl)[nH]1", "note": "+ C[C@]1(O)C[C@@H](c2nc(-c3ccc4ccc(-c5ccccc5)nc4c3)c3c(N)nccn32)C1 [Linsitinib] (partner 1 µM)", "values": [{"measurement": "relative viability", "setting": "[1]; first compound 0.08 µM", "result": 1.03}, {"measurement": "relative viability", "setting": "[1]; first compound 0.253 µM", "result": 1.01}, {"measurement": "relative viability", "setting": "[1]; first compound 0.8 µM", "result": 1.02}, {"measurement": "relative viability", "setting": "[1]; first compound 2.53 µM", "result": 1.01}, {"measurement": "relative viability", "setting": "[2]; first compound 0.08 µM", "result": 1.04}, {"measurement": "relative viability", "setting": "[2]; first compound 0.253 µM", "result": 0.682}, {"measurement": "relative viability", "setting": "[2]; first compound 0.8 µM", "result": 0.839}, {"measurement": "relative viability", "setting": "[2]; first compound 2.53 µM", "result": 0.593}, {"measurement": "relative viability", "setting": "[3]; first compound 0.08 µM", "result": 0.806}, {"measurement": "relative viability", "setting": "[3]; first compound 0.253 µM", "result": 0.787}, {"measurement": "relative viability", "setting": "[3]; first compound 0.8 µM", "result": 0.841}, {"measurement": "relative viability", "setting": "[3]; first compound 2.53 µM", "result": 0.837}, {"measurement": "relative viability", "setting": "[4]; first compound 0.08 µM", "result": 0.852}, {"measurement": "relative viability", "setting": "[4]; first compound 0.253 µM", "result": 0.792}, {"measurement": "relative viability", "setting": "[4]; first compound 0.8 µM", "result": 0.814}, {"measurement": "relative viability", "setting": "[4]; first compound 2.53 µM", "result": 0.83}, {"measurement": "relative viability", "setting": "[5]; first compound 0.08 µM", "result": 1.15}, {"measurement": "relative viability", "setting": "[5]; first compound 0.253 µM", "result": 0.884}, {"measurement": "relative viability", "setting": "[5]; first compound 0.8 µM", "result": 0.928}, {"measurement": "relative viability", "setting": "[5]; first compound 2.53 µM", "result": 0.944}, {"measurement": "relative viability", "setting": "[6]; first compound 0.08 µM", "result": 1.09}, {"measurement": "relative viability", "setting": "[6]; first compound 0.253 µM", "result": 0.972}, {"measurement": "relative viability", "setting": "[6]; first compound 0.8 µM", "result": 0.775}, {"measurement": "relative viability", "setting": "[6]; first compound 2.53 µM", "result": 0.794}, {"measurement": "relative viability", "setting": "[7]; first compound 0.08 µM", "result": 0.62}, {"measurement": "relative viability", "setting": "[7]; first compound 0.253 µM", "result": 0.476}, {"measurement": "relative viability", "setting": "[7]; first compound 0.8 µM", "result": 0.489}, {"measurement": "relative viability", "setting": "[7]; first compound 2.53 µM", "result": 0.789}, {"measurement": "relative viability", "setting": "[8]; first compound 0.08 µM", "result": 0.965}, {"measurement": "relative viability", "setting": "[8]; first compound 0.253 µM", "result": 0.897}, {"measurement": "relative viability", "setting": "[8]; first compound 0.8 µM", "result": 1.01}, {"measurement": "relative viability", "setting": "[8]; first compound 2.53 µM", "result": 0.984}, {"measurement": "relative viability", "setting": "[9]; first compound 0.08 µM", "result": 1.22}, {"measurement": "relative viability", "setting": "[9]; first compound 0.253 µM", "result": 0.893}, {"measurement": "relative viability", "setting": "[9]; first compound 0.8 µM", "result": 1.04}, {"measurement": "relative viability", "setting": "[9]; first compound 2.53 µM", "result": 1.06}, {"measurement": "relative viability", "setting": "[10]; first compound 0.08 µM", "result": 1.01}, {"measurement": "relative viability", "setting": "[10]; first compound 0.253 µM", "result": 0.763}, {"measurement": "relative viability", "setting": "[10]; first compound 0.8 µM", "result": 0.837}, {"measurement": "relative viability", "setting": "[10]; first compound 2.53 µM", "result": 0.849}, {"measurement": "relative viability", "setting": "[11]; first compound 0.08 µM", "result": 1.03}, {"measurement": "relative viability", "setting": "[11]; first compound 0.253 µM", "result": 0.856}, {"measurement": "relative viability", "setting": "[11]; first compound 0.8 µM", "result": 0.958}, {"measurement": "relative viability", "setting": "[11]; first compound 2.53 µM", "result": 0.991}, {"measurement": "relative viability", "setting": "[12]; first compound 0.08 µM", "result": 1.21}, {"measurement": "relative viability", "setting": "[12]; first compound 0.253 µM", "result": 1.14}, {"measurement": "relative viability", "setting": "[12]; first compound 0.8 µM", "result": 1.23}, {"measurement": "relative viability", "setting": "[12]; first compound 2.53 µM", "result": 1.1}, {"measurement": "relative viability", "setting": "[13]; first compound 0.08 µM", "result": 0.907}, {"measurement": "relative viability", "setting": "[13]; first compound 0.253 µM", "result": 0.978}, {"measurement": "relative viability", "setting": "[13]; first compound 0.8 µM", "result": 0.987}, {"measurement": "relative viability", "setting": "[13]; first compound 2.53 µM", "result": 1.02}, {"measurement": "relative viability", "setting": "[14]; first compound 0.08 µM", "result": 0.739}, {"measurement": "relative viability", "setting": "[14]; first compound 0.253 µM", "result": 0.726}, {"measurement": "relative viability", "setting": "[14]; first compound 0.8 µM", "result": 0.753}, {"measurement": "relative viability", "setting": "[14]; first compound 2.53 µM", "result": 0.704}, {"measurement": "relative viability", "setting": "[15]; first compound 0.08 µM", "result": 1.04}, {"measurement": "relative viability", "setting": "[15]; first compound 0.253 µM", "result": 0.949}, {"measurement": "relative viability", "setting": "[15]; first compound 0.8 µM", "result": 1.04}, {"measurement": "relative viability", "setting": "[15]; first compound 2.53 µM", "result": 0.997}, {"measurement": "relative viability", "setting": "[16]; first compound 0.08 µM", "result": 0.99}, {"measurement": "relative viability", "setting": "[16]; first compound 0.253 µM", "result": 0.853}, {"measurement": "relative viability", "setting": "[16]; first compound 0.8 µM", "result": 0.874}, {"measurement": "relative viability", "setting": "[16]; first compound 2.53 µM", "result": 0.947}, {"measurement": "relative viability", "setting": "[17]; first compound 0.08 µM", "result": 0.662}, {"measurement": "relative viability", "setting": "[17]; first compound 0.253 µM", "result": 0.445}, {"measurement": "relative viability", "setting": "[17]; first compound 0.8 µM", "result": 0.606}, {"measurement": "relative viability", "setting": "[17]; first compound 2.53 µM", "result": 0.519}, {"measurement": "relative viability", "setting": "[18]; first compound 0.08 µM", "result": 1.02}, {"measurement": "relative viability", "setting": "[18]; first compound 0.253 µM", "result": 1.11}, {"measurement": "relative viability", "setting": "[18]; first compound 0.8 µM", "result": 1.06}, {"measurement": "relative viability", "setting": "[18]; first compound 2.53 µM", "result": 1.07}, {"measurement": "relative viability", "setting": "[19]; first compound 0.08 µM", "result": 1.17}, {"measurement": "relative viability", "setting": "[19]; first compound 0.253 µM", "result": 0.993}, {"measurement": "relative viability", "setting": "[19]; first compound 0.8 µM", "result": 1.17}, {"measurement": "relative viability", "setting": "[19]; first compound 2.53 µM", "result": 1.03}, {"measurement": "relative viability", "setting": "[20]; first compound 0.08 µM", "result": 0.946}, {"measurement": "relative viability", "setting": "[20]; first compound 0.253 µM", "result": 0.896}, {"measurement": "relative viability", "setting": "[20]; first compound 0.8 µM", "result": 0.913}, {"measurement": "relative viability", "setting": "[20]; first compound 2.53 µM", "result": 0.834}, {"measurement": "relative viability", "setting": "[21]; first compound 0.08 µM", "result": 1.2}, {"measurement": "relative viability", "setting": "[21]; first compound 0.253 µM", "result": 1.03}, {"measurement": "relative viability", "setting": "[21]; first compound 0.8 µM", "result": 1.05}, {"measurement": "relative viability", "setting": "[21]; first compound 2.53 µM", "result": 1.04}]}]}
